In data set [1] the test system is rats. Description: EEG/EMG sleep-wake analysis, single administration compared to zolpidem. The format is in vivo, rat.
The test system of a further data set is chronic insomniacs. As to conditions: 10 mg zolpidem, PSG in chronic insomniacs; cited from earlier work.
A short description of data set [2]: In vivo bioavailability after oral dosing. As to conditions: male, Sprague-Dawley [Crl:CD(SD)], rat, plasma; 1 mg/kg oral, non-fasted; mean of multiple determinations.
A short description of data set [3]: Rat protein binding, equilibrium dialysis of rat plasma. Conditions: rat, rat plasma, 2 μg/mL, 24 hours dialysis at 37° C. Type of data set: in vitro ADME. Here is the method: The extent of in vitro binding of Compound (1F), […], or W-212393 to rat plasma was determined as an assessment of the protein binding of each compound, i.e., compound unavailable for modulating receptor activity. Plasma from rats containing a tested compound in one chamber of a dialysis cell was dialyzed with PBS in the other chamber; thereafter, the supernatant from each chamber was analyzed for the concentration of the tested compound present. A cell suitable for equilibrium dialysis was used in the determinations. The dialysis membrane described in Example 10 (with molecular mass cutoff of 12,000-14,000 Da) separated the dialysis cell into two chambers. The membrane was soaked with purified water and PBS before being placed into the dialysis cell. 4 μL of an iv formulation of each tested compound was added to 996 μL of rat plasma, the latter obtained using syringe containing heparin and EDTA by the procedure described in Example 10, to provide a plasma sample with a tested compound concentration of 2 μg/mL. 450 μL of the plasma sample was applied to one chamber (plasma chamber) of the dialysis cell. A 450 μL aliquot of PBS was applied to the other chamber (PBS chamber) of the dialysis cell. The dialysis study was conducted in duplicate for each tested compound. After 24 hours of equilibrium dialysis at 37° C., 30 μL of liquid from the plasma chamber of the dialysis cell was collected and to this was added 270 μL of fresh PBS (this combination was designated Sample “1”). Then, 270 μL of liquid from the PBS chamber of the dialysis cell was collected and to this was added 30 μL of control rat plasma (i.e., rat plasma never exposed to any test compound, this combination was designated Sample “2”). Thereafter, each sample was mixed well and stored in a freezer until the next analysis step. After the protein precipitated in the freezer, each supernatant thusly obtained was analyzed by LC-MS-MS for unbound test compound. […] Thereafter, the percentage of rat protein-bound (“RPB”) tested compound was calculated as follows: […]
On the technique in general: In equilibrium dialysis only unbound substance equilibrates across the membrane.

The next data set concerns rat liver microsomes. Description: In vitro metabolic stability, rat liver microsomes. The format is in vitro ADME. Conditions: 2 μM, % remaining after 30 minutes at 37° C. As to the method:
(§1) The comparative in vitro metabolic stabilities of Compounds (1F), […], and W-212393 were determined upon exposure to human liver microsomes or rat liver microsomes according to a procedure disclosed in, e.g., Example 14 of U.S. Pat. No. 9,290,488, which is hereby incorporated by reference in its entirety. Liver microsomes from Crj;CD rats or humans were incubated with 2 μM of each tested compound; thereafter, the supernatant was analyzed by HPLC-MS for the concentration of the tested compound present. Human liver microsomes, pooled, 20 mg/mL, were obtained from […] #H0610). […] Alternatively and if desired, rat liver microsomes can be obtained commercially from, e.g., XenoTech (Sprague-Dawley rat liver microsomes, pooled, 20 mg/mL, cat #R1000). β-NADPH (β-nicotinamide adenine dinucleotide 2'-phosphate reduced tetrasodium salt hydrate) was obtained from Oriental Yeast Co., Ltd. (Tokyo, Japan). Each tested compound, present at an initial concentration of 2 μM, was incubated at 37° C. in the presence of 0.5 mg/mL of either human microsomes or rat microsomes in suspension in 50 mM Tris-HCl buffer (7.4 pH), 150 mM KCl, 10 mM MgCl2, and 1 mM β-NADPH. Incubation was initiated upon the addition of a 100-fold concentrated solution of the tested compound to one of the microsome preparations. Incubation was terminated by addition of a two-fold volume of a 1/1 mixture of acetonitrile/methanol after either 0 minutes or 30 minutes of incubation at 37° C. Thereafter, proteins and other macromolecules from the microsome preparation were removed by centrifugation. All incubations were conducted in duplicate. […] The HPLC system consisted of a Waters 2795 separations module (Waters Corp., Milford, Mass.) equipped with an inline degasser, temperature controlled auto-sampler, and column oven. The analytical column was a Waters […], 2.1 mm×20 mm column. The mass analyzer was a Waters ZQ, single quadrupole mass spectrometer equipped with an electrospray ionization source operating in the positive ionization mode and utilizing a stainless steel spray capillary. […]
Background: Liver microsomes are vesicles of endoplasmic reticulum, rich in cytochrome P450 enzymes.

In the next data set the test system is human liver microsomes. Description: In vitro metabolic stability, human liver microsomes. As to conditions: 2 μM, % remaining after 30 minutes at 37° C. Type of data set: in vitro ADME. Here is the method: as §1
The nature of the next data set: in vivo. As to conditions: male, Crl, CD(SD), rat, brain homogenate and plasma, intravenous, 0.5 mg/kg.
Data set [4] can be described thus: Aqueous solubility at pH about 6.8. Type of data set: physicochemical. Conditions: 25 °C, pH 6.8, aqueous buffer, kinetic from dmso stock.
A short description of data set [5]: In vivo functional observational battery (FOB). As to conditions: male, Crl:CD(SD), rat, in vivo, po.
In data set [6] the test system is rats. Briefly: In vivo functional observational battery (FOB). As to conditions: for Increased touch response: 10 mg/kg.
Setting [7] is: 30 mg/kg, 1 h after administration.
[8] abbreviates: 30 mg/kg, 2 h after administration.
Where [9] appears, read: 30 mg/kg, 4 h after administration.
Where [10] appears, read: 30 mg/kg, 6 h after administration.
Where [11] appears, read: 30 mg/kg, 8 h after administration.
The mark [12] stands for this setting: 30 mg/kg, 24 h after administration.
The mark [13] stands for this setting: 300 mg/kg, 1 h after administration.
Where [14] appears, read: 300 mg/kg, 2 h after administration.
Where [15] appears, read: 300 mg/kg, 4 h after administration.
[16] abbreviates: 300 mg/kg, 6 h after administration.
The mark [17] stands for this setting: 300 mg/kg, 8 h after administration.
The mark [18] stands for this setting: 300 mg/kg, 24 h after administration.

Structures are written as SMILES. In brackets after ≈: the same amount, converted by molar mass. Like-named read-outs stand apart in the source and are kept apart here.

Turning to `Cc1ccc(-c2nc3ccc(C)cn3c2CC(=O)N(C)C)cc1` [zolpidem, reference compound], the overall sleep effect result with rats [1] (single zolpidem dose of 10 mg/kg oral) is reported as “sleep-enhancing effect”. Besides, the “effect on percentage of time spent in REM sleep” value in the data set on rats [1] (zolpidem 10 mg/kg oral (FIG. 17B, 18B)) is “no significant effects”. In addition, the “NREM sleep versus vehicle” value in the data set on rats [1] (zolpidem 10 mg/kg oral, 3 hour block 0-3 hours after dosing (FIG. 18C)) is recorded as “significant increase”. In the data set with rats [1] (zolpidem 10 mg/kg oral, 3 hour blocks, 0-12 hours after administration (FIG. 18A)), the wakefulness versus vehicle entry was “decreased tendency”. Moreover, the “percentage of time spent in wakefulness” value is “about 46%” with rats [1] (zolpidem 10 mg/kg oral, at 1 hour after dosing (FIG. 17A)); approximately 43% in the data set with rats [1] (zolpidem 10 mg/kg oral, at 10 hours after dosing (FIG. 17A)); “about 69%” in the data set with rats [1] (zolpidem 10 mg/kg oral, at 15 hours after dosing, lights-on period (FIG. 17A)). The “percentage of time spent in NREM sleep” value in the data set on rats [1] (zolpidem 10 mg/kg oral, at 1 hour after dosing (FIG. 17C)) was “about 53%”; in the data set with rats [1] (zolpidem 10 mg/kg oral, at 15 hours after dosing (FIG. 17C)) it was approximately 30%. In the data set with chronic insomniacs, the “Mean percent SE higher than placebo group” value was 7%.

As for `C[C@@H]1C[C@@H]2C[C@H](C1)C[C@@H](N1[C@@H]3CCC[C@H]1C[C@@H](n1c(=O)c(C(=O)O)nc4ccccc41)C3)C2` [Compound 405K], in data set [2], the bioavailability (in general, dose-corrected exposure relative to a reference, in per cent) turned out to be 63.7%. Further, in data set [3], the free fraction (fraction unbound) (usually the share of the substance not bound to proteins or other matrix) at 24 h, 2 μg/mL is approximately 0.14. Also, the “Rat Metabolic Stability (%)” value in the data set with rat liver microsomes stood at 96.9%. Besides, the “Human Metabolic Stability (%)” value in the data set on human liver microsomes is 95.1%. Besides, the Kp (usually the ratio of the level in a tissue or fluid to that in plasma or blood) at 30 min in the data set “in vivo” came to 0. The solubility (as a rule, how much of the substance goes into solution per volume) at 16 h in data set [4] (50 mM phosphate buffer, second procedure (50 mM phosphate buffer, HPLC), read-out: Solubility at pH 6.8) was 5 µM (≈ 2.25 µg/mL); in data set [4] (first procedure (JP2 solution, LC-MS), read-out: Solubility at pH 6.8) it was 8 µM (≈ 3.6 µg/mL); in [4] (pH of about 6.8, average of two determinations, read-out: aqueous solubility, average) it was approximately 6.5 µM (≈ 2.92 µg/mL).

Take `C[C@@H]1C[C@@H]2C[C@H](C1)C[C@@H](N1[C@@H]3CCC[C@H]1C[C@@H](n1c(=O)c(C(=O)O)nc4ccccc41)C3)C2` [Compound 405]: in data set [5], the NOAEL (usually the highest tested level that showed no adverse finding) was 10 mg/kg. For the same molecule, the Increased touch response with rats [6] (1 h after administration) was 1 of 6; in the data set on rats [6] (2 h after administration), “N”; in the data set on rats [6] (4 h after administration), “N”; with rats [6] (6 h after administration), “N”; in the data set with rats [6] (8 h after administration) it was “N”; in the data set with rats [6] (24 h after administration), “N”. The Biting behavior result in the data set on rats [6] (setting [7]) is “N”; in the data set on rats [6] (setting [8]), “N”; with rats [6] (setting [9]), “N”; with rats [6] (setting [10]), 3 of 6; with rats [6] (setting [11]), “N”; with rats [6] (setting [12]), “N”. For the same molecule, the Biting behavior result in the data set with rats [6] (100 mg/kg, 1 h after administration) is recorded as “N”; in the data set with rats [6] (100 mg/kg, 2 h after administration), “N”; with rats [6] (100 mg/kg, 4 h after administration), “N”; with rats [6] (100 mg/kg, 6 h after administration) it was 1 of 6; in the data set with rats [6] (100 mg/kg, 8 h after administration), 1 of 6; in the data set with rats [6] (100 mg/kg, 24 h after administration) it was “N”. The Biting behavior result is given as “N” with rats [6] (setting [13]); “N” with rats [6] (setting [14]); “N” with rats [6] (setting [15]); 2 of 6 with rats [6] (setting [16]); 1 of 6 with rats [6] (setting [17]); “N” with rats [6] (setting [18]). Besides, the Jumping entry with rats [6] (setting [7]) is listed as “N”; with rats [6] (setting [8]), “N”; in the data set with rats [6] (setting [9]) it was “N”; in the data set with rats [6] (setting [10]), 1 of 6; in the data set with rats [6] (setting [11]), “N”; in the data set on rats [6] (setting [12]), “N”. Also, the Jumping result in the data set with rats [6] (setting [13]) is on record as “N”; in the data set with rats [6] (setting [14]) it was “N”; with rats [6] (setting [15]), “N”; in the data set with rats [6] (setting [16]), 1 of 6; with rats [6] (setting [17]), 2 of 6; in the data set on rats [6] (setting [18]), “N”.

The values are drawn from patent publication US10974081B2, “Treatment and prevention of sleep disorders” (Purdue Pharma L.P., priority 2016, dated 2021).
